US20090304756A1, “Method for the Encapsulation and Controlled Release of Poorly Water-Soluble (Hyprophobic) Liquid and Solid Active Ingredients” (priority 2005, published 2009)

Columns and labels:
[1] = Amount of imidacloprid in particles, release into excess methanol with UV/vis analysis of supernatant; type: physicochemical; details: silica templates 5 μm, pore 6 nm, PSS/PAH coated; released in large excess of methanol
Procedure: 25 mg of the somewhat water-soluble active ingredient imidacloprid were dissolved in 3 ml of acetone, and 100 mg of spherical, porous silica templates (diameter 5 μm, pore size 6 nm) were added. After incubation for 30 min, water was added stepwise until the solution reached saturation of imidacloprid, evident from further considerable cloudiness. The supernatant was centrifuged off and the particles were suspended with 1% SDS solution. In this connection, here and in all of the following washing and coating solutions, imidacloprid saturated solutions were used in order to prevent a dissolving out from the particles. After the coating with PSS and PAH (analogously to Example 1), separate particles filled with 15% m/m (mass of imidacloprid/mass of particles) were obtained (FIG. 3). The amount of imidacloprid was determined by releasing the active ingredient in a large excess in methanol with subsequent UV/vis spectroscopic analysis of the supernatant.

[2] = Perylene concentration in particle interior by confocal fluorescence microscopy; type: physicochemical; details: C18 silica templates 5 μm, pore 6 nm, PAH/PSS LbL coated; self-quenching may feign lower concentration
Procedure: 12.5 mg of the model dye perylene were dissolved in 6 ml of chloroform. A suspension of 100 mg of spherical, porous silica templates (diameter 5 μm, pore size 6 nm) in 1 ml of chloroform was added thereto. The surface of the templates is hydrophobically modified with C18 alkyl chains (RP 18, chromatography material). The solvent was evaporated at 40° C. in a drying cabinet with stirring. The powder which remained was resuspended in water with the help of 1% sodium dodecyl sulphate (SDS). […] Besides the fluorescence of the perylene in the particles, a few larger (and lighter) crystals of the pure dye can also be seen which no longer arise when using smaller fill amounts. The SDS solution was centrifuged off and the particles were incubated with 500 μl of a solution of 1 g/l Cy5 labelled poly(allylamine hydrochloride) (PAH-Cy5, MW 70000 g/mol), pH 6.5 and 0.5 M NaCl for 20 min with brief application of ultrasound. After washing the particles three times with water, 500 μl of a solution of 1 g/l of poly(sodium 4-styrenesulphonate) (PSS, MW 70000 g/mol) in 0.5 M NaCl with pH 6.1 are added. […]
The concentration of the perylene in the interior of the particles was determined via the fluorescence by confocal microscopy by reference to comparison solutions. […]

## O=[N+]([O-])NC1=NCCN1Cc1ccc(Cl)nc1 [imidacloprid]
[1]
  filling (mass of imidacloprid/mass of particles): 15 % m/m

## c1cc2cccc3c4cccc5cccc(c(c1)c23)c54 [perylene]
[2]
  concentration of perylene in the interior of the particles: 8.5 mg of perylene per 100 mg of particles
